# According to patent US20210121518A1, “HER2-TARGETED PEPTIDOMIMETICS GRAFTED ONTO MULTICYCLIC PEPTIDE SCAFFOLDS AND METHODS AND USES” (Board of Supervisors for the University of Louisiana System, priority 2018, published 2021):
# Several values for one entry are separate records, joined by “and”; a condition that tells them apart may be missing. Equal values may be shown once. Entries after “also recorded” stand apart in the source; their conditions may differ. Numbered stars: 1 amine (or outer) side, 2 acyl side, 3 side chain; on linkers, the order of the positions; unused ones are H or OH. Bridge positions count the residues as written; N and C are the ends. Square brackets hold non-standard residues; d marks the D form. Peptide text beside a SMILES is read from it. βAla(3R-(1-naphthyl)) = O=C(C[C@@H](N[*:1])c1cccc2ccccc12)[*:2]; βAla(3S-(1-naphthyl)) = O=C(C[C@H](N[*:1])c1cccc2ccccc12)[*:2]
# What was measured:
# [1] = for appearance in water (turbidity): 0.5 mg in 1 mL water, compared to blank
# Experimental: 0.5 mg of each compound was added to water in 1 mL. […] If a compound is highly soluble in water, it may not pass through intestinal barrier. Compound should be slightly lipophilic to pass through intestinal barrier.
# [2] = test system: normal breast epithelial cell line MCF-10A; conditions: for IC50: read-out: antiproliferative activity IC50, MCF-10A
# Experimental: (§1) X=Anapa, amino naphthyl propionic acid, specifically, 3-amino 3(1-napthyl) propionic acid. Single letter amino acid code was used for peptide sequence. Small letters refer to D amino acids and capital letters refer to L amino acids. Chirality of Anapa was indicated with R and S configuration in italics. Antiproliferative activity of peptides in cancer cell lines are given as IC50 μM. Disulfide bond between the cysteines is shown in underline.
# Design of grafted peptides: Peptidomimetics were designed to bind to HER2 protein domain IV and inhibit PPI of HER2:HER3 and EGFR:HER2.
# [3] = test system: EGFR mutated NSCLC cell line NCI-H1975; experiment: Synergy with TKI (isobologram) in NCI-H1975; format: cell-based
# [4] = test system: A549 Red-FLuc NSCLC cells; experiment: A549 Red-FLuc lung cancer model in athymic nude mice; format: in vivo, mice (Foxn1-nude); conditions: 6 mg/kg IV twice a week
# Experimental: A549 cells with luciferase were injected to induce lung cancer in mice (Foxn1-nude). One week after injection of cells, mice were monitored for lung cancer development using luciferin imaging. Peptide was administered via IV twice a week after 2 weeks of cell injections. Representative images: In the control group (row 1) lung cancer tumor growth increased in 5 weeks.
# FIG. 17 is a chart showing relative luminescence intensity (total photon flux/sec) plotted for 3 animals and a control.
# FIG. 18A is a plot of relative luminescence intensity (total photon flux/sec) plotted for 4 animals and controls from the lung cancer study, *p<0.05, and FIG. 18B is a plot displaying bodyweight change of mice during the study.
# Athymic nude mice (Foxn1-nude, 6-7 weeks old) were purchased from Harlan laboratories. Mice were acclimatized for one week in the vivarium. 4.5×10^6 A549 Red-FLuc NSCLC cells in 150 μL PBS were injected into each mouse via tail vein (IV). Total of four mice were injected with cells. Mice were monitored for 2 weeks. After 1 week, mice were injected with luciferin (200 μL in PBS, IP injection) and imaged under anesthesia using IVIS (Perkin Elmer) instrument. Bioluminescence was measured from each animal. One animal was used as a control. Peptide treatment started after 2 weeks from injection of cells and peptide was prepared in PBS and administered via i.v. with a dose of 6 mg/kg in 100 μL twice a week. Animals were imaged once a week to monitor the progression of lung cancer. Images were quantified using Living Image Software (Perkin Elmer). Bioluminescence signal for each mouse was expressed as total flux of photons/sec. Region of interest tool was used to measure the total photon flux/sec. A graph of bioluminescence for each mouse was plotted with respect to time (each week). After five weeks mice were terminated, and tumor sections and lungs were removed by surgical procedure. Tumor sections were fixed, embedded in […], and cut into 5 μm slices. […] Images were viewed under a fluorescence microscope (Olympus BX63 microscope) at 40× magnification. […]
# [5] = test system: BT-474 cell lines that overexpress HER2; experiment: Synergy with TKI (isobologram) in BT-474; format: cell-based
# [6] = test system: MCF-7 cell lines that do not overexpress the HER2 protein
# Experimental: as §1
# [7] = test system: HER2-overexpressing lung cancer Calu-3 cell lines; conditions: read-out: antiproliferative activity IC50
# Experimental: as §1
# [8] = test system: HER2 overexpressing BT-474 breast cancer cell lines; conditions: read-out: antiproliferative activity IC50
# Experimental: as §1
# [9] = Thermal stability by MALDI-TOF mass spectrometry; format: physicochemical; conditions: 25° C., 50° C., 80° C., MALDI-TOF-MS
# Experimental: FIGS. 12A-12C are three charts showing thermal stability of the disclosed H2TPFGGoCSs using mass spectrometry.
# (§2) However, CD spectra of peptides provide the information about the overall average conformation of the peptide in solution. To verify that the peptide was stable even at high temperature, the samples of peptide that were heated to 80 C was analyzed by mass spectrometry. […] The CD spectra of compound 18 was also verified using mass spectrometry analysis (FIG. 22).
# trypsin = experiment: Stability in trypsin (HPLC); format: in vitro ADME; conditions: pH 7.4, 37° C, 24 hours
# Experimental: The trypsin inhibition assay was performed with a modified Erlanger's method. […] Samples at different incubation times were analyzed by HPLC.
# [10] = test system: Calu-3 lung cancer cell lines that overexpresses HER2; experiment: Synergy with TKI (isobologram) in Calu-3; format: cell-based
# [11] = Thermal stability by CD spectroscopy; format: physicochemical; conditions: temperature changed from 25 to 80° C. (85 C)
# Experimental: Overall conformation of the peptide remained the same at all temperatures studied.
# as §2
# [12] = Stability in human serum (in vitro, HPLC); format: in vitro ADME
# Source text: At different time points, aliquots of sample were taken and subjected to extraction of compound using cold acetonitrile. Samples were freeze dried and quantified by HPLC method. […] Nearly 60% of sample is intact peptide.
# [13] = test system: NCI-H1975 (EGFR L858R/T790M double mutation); conditions: read-out: antiproliferative activity IC50
# Experimental: as §1
# The inventor therefor designed compounds to bind to the extracellular domain and inhibit the downstream signaling. NCI-H1975 is a cell line that harbors the EGFR L858R/T790M double mutation.
# [14] = test system: phosphorylation of HER2 kinase; experiment: Western blot of HER2 phosphorylation in A549 cells; format: cell-based; conditions: 1 μM, incubation 40 h
# Experimental: Lapatinib (2 μM) was used as positive control. Incubation 40 h. *p<0.05 **P<0.01.
# Lapatinib, a known inhibitor of HER2, was used as a positive control.
# [15] = molecular target: HER2 protein extracellular domain (ECD) (Homo sapiens, UniProt P04626); experiment: SPR binding to HER2 extracellular domain; conditions: SPR sensorgram
# Source text: Surface plasmon resonance (SPR) analysis of binding of grafted peptide with HER2 ECD protein at different concentrations. […] SPR analysis of binding of grafted peptide with HER2 ECD domain IV protein at different concentrations.
# To evaluate the binding of the grafted peptide to HER2 protein ECD, surface plasmon resonance (SPR) analysis was used.
# [16] = molecular target: T1, human serum albumin (HSA) (human, UniProt P02768 25-609); experiment: SPR
# T1 construct: also called HSA protein
# T1 sequence (P02768 25-609 limits assumed): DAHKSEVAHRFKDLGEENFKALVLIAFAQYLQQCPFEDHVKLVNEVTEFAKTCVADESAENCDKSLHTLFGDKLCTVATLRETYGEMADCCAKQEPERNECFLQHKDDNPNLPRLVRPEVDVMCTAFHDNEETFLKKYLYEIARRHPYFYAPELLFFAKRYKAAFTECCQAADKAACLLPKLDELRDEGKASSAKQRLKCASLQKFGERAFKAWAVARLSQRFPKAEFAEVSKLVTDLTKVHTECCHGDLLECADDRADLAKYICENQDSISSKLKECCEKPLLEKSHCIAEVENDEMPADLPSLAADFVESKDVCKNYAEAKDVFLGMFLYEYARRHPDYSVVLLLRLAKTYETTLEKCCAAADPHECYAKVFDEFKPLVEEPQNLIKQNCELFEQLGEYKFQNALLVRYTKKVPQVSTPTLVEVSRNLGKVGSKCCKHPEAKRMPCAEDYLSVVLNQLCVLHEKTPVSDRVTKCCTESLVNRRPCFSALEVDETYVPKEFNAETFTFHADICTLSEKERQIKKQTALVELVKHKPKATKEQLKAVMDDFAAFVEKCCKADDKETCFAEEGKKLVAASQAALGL
molecule,measurement,setting,value
"N=C(N)NCCC[C@@H]1NC(=O)[C@H]2CCCN2C(=O)[C@@H]2CCCN2C(=O)[C@H](CCCNC(=N)N)NC(=O)C[C@H](c2cccc3ccccc23)NC(=O)[C@H](Cc2ccccc2)NC(=O)[C@H](CC(=O)O)NC(=O)[C@H](CC(=O)O)NC(=O)[C@H](Cc2ccccc2)NC(=O)C[C@H](c2cccc3ccccc23)NC1=O [compound 18, reference compound] (cyclo(P[dP]R[βAla(3R-(1-naphthyl))]FDDF[βAla(3R-(1-naphthyl))]R))",solubility,[1],< 500 µg/mL
same,IC50,[2],40 µM
Cyclo(C(S-X)RIHyPHyPR(S-X)CFPDDF) [SFTI-G7],appearance in water (turbidity),[1],slightly turbid
"CC[C@H](C)[C@@H]1NC(=O)[C@H](CCCNC(=N)N)NC(=O)C[C@@H](c2cccc3ccccc23)NC(=O)[C@@H]2CSSC[C@H](NC(=O)C[C@@H](c3cccc4ccccc34)NC(=O)[C@H](CCCNC(=N)N)NC(=O)[C@@H]3CCCN3C(=O)[C@@H]3CCCN3C1=O)C(=O)N[C@@H](Cc1ccccc1)C(=O)N1CCC[C@H]1C(=O)N[C@@H](CC(=O)O)C(=O)N[C@@H](CC(=O)O)C(=O)N[C@@H](Cc1ccccc1)C(=O)N2 [SFTI-G5, Cyclo(C(S-X)RIPPR(S-X)CFPDDF)]",synergistic effect with erlotinib (isobologram),"[3]; NCI-H1975, combination with erlotinib",synergistic
same,synergistic effect with lapatinib (isobologram),"[3]; NCI-H1975, combination with lapatinib",synergistic
same,histological analysis of lung tissue,[4],reduced pathological features associated with tumor development
same,"tumor growth (bioluminescence, total photon flux/sec)","[4]; weeks 4 and 5, vs control",reduced growth of tumors; also recorded: tumor growth was reduced compared to the control group; also recorded: reduction in the luminescence intensity of tumors
same,body weight change of mice,[4]; during the study,No changes in body weight were observed
same,synergistic effect with erlotinib (isobologram),"[5]; BT-474, combination with erlotinib",synergistic
same,synergistic effect with lapatinib (isobologram),"[5]; BT-474, combination with lapatinib",synergistic
same,appearance in water (turbidity),[1],slightly turbid
same,"antiproliferative activity, times less against HER2-ve cell lines",[6]; as printed: less than its activity against HER2-ve cell lines,~300 times
same,IC50,"[6]; read-out: antiproliferative activity IC50, MCF-7",25 µM
same,IC50,[7],0.073 µM
same,IC50,[8],0.28 µM
same,"thermal stability, mass spectrometry",[9],stable up to 80 C; also recorded: thermally stable
same,stability in trypsin,trypsin,stable in trypsin assay
same,synergistic effect with erlotinib (isobologram),"[10]; Calu-3, combination with erlotinib",synergistic
same,synergistic effect with lapatinib (isobologram),"[10]; Calu-3, combination with lapatinib",synergistic
same,"thermal stability, CD spectra",[11],stable from 25 C to 85 C; also recorded: more stable than compound 18; also recorded: no significance difference in the CD spectra
same,time of stability in human serum,"[12]; 2 mg/mL in human serum, HPLC",up to 50 h
same,"remaining at 50 h, 2 mg/mL","[12]; human, human serum, up to 50 h, read-out: intact peptide in human serum",~60%
same,IC50,[13],4.22 µM
same,inhibition of HER2 phosphorylation,[14],inhibits phosphorylation of HER2 kinase; also recorded: reduces HER2 phosphorylation
same,"antiproliferative activity, times less in noncancerous breast cell lines compared to Calu-3",[2]; MCF-10A vs Calu-3,more than 500 times
same,IC50,[2],40 µM
H2N—K(3-aminobiphenyl propionic acid)F—OH [control peptide],binding to HER2 protein (in words),[15],does not bind to HER2 protein; also recorded: no binding was observed
"cyclo(C[βAla(3S-(1-naphthyl))]RIPPR[βAla(3S-(1-naphthyl))]CFPDDF) (disulfide 1-9, also called grafted peptide; grafted SFTI peptide) [SFTI-G5]",Kd,[16],56.9 µM and 56 µM
